# Test results: US20240165282A1, “CONFORMATIONAL CONSTRAINED SOMATOSTATIN RECEPTOR 3 PEPTIDE LIGANDS AND THEIR CONJUGATES AND USES THEREOF” (STARGET PHARMA LTD., priority 2021, published 2024)
# *1 amine or outer side, *2 acyl side, *3 side chain or, on linkers, in order; H or OH if unused. Where a SMILES comes first, the peptide text is derived from it. Bridges are numbered along the chain shown (N, C = ends). [ ]: non-standard residue; d: D form. The star is where a group is joined. DOTA = O=C(O)CN1CCN(CC(=O)O)CCN(CC(=O)*)CCN(CC(=O)O)CC1; N(2-mercaptoethyl)Gly = O=C(CN(CCS[*:3])[*:1])[*:2]
# Assays:
# Test in all cases: Cerep off-target radioligand binding
# D2S (h) = D2S (h) (Homo sapiens, UniProt P14416); conditions: 1 micromolar; agonist radioligand; read-out: % Activity: Inhibition of Control Specific Binding
# Experimental: (§1) In this example, off-target interactions for SEQ ID NO.
# (§2) The assays were performed by Eurofins Cerep (Celle 1'Evescault, France). Compound binding was calculated as a % inhibition of the binding of a radioactively labeled ligand specific for each target. Compound enzyme inhibition effect was calculated as a % inhibition of control enzyme activity. In each experiment and if applicable, the respective reference compound was tested concurrently with SEQ ID NO. 3, and the data were compared with historical values determined at Eurofins. The experiment was accepted in accordance with Eurofins validation Standard Operating Procedure. Results showing an inhibition (or stimulation for assays run in basal conditions) higher than 50% are considered to represent significant effects of the test compounds.
# [1] = target: T1, norepinephrine transporter (h) (Homo sapiens, UniProt P23975); conditions: 1 micromolar; antagonist radioligand; read-out: % Activity: Inhibition of Control Specific Binding
# T1 construct: Eurofins Cerep (contract assay)
# Experimental: as §1, §2
# [2] = target: T2, Potassium Channel hERG (human) (Homo sapiens, UniProt Q12809); conditions: [3H] Dofetilide, read-out: % Activity: Inhibition of Control Specific Binding
# T2 construct: Eurofins Cerep (contract assay)
# Experimental: as §1, §2
# alpha 1A (h) = alpha 1A (h) (Homo sapiens, UniProt P35348); conditions: 1 micromolar; antagonist radioligand; read-out: % Activity: Inhibition of Control Specific Binding
# Experimental: as §1, §2
# V1a (h) = target: T3, V1a (h) (Homo sapiens, UniProt P37288); conditions: 1 micromolar; agonist radioligand; read-out: % Activity: Inhibition of Control Specific Binding
# T3 construct: Eurofins Cerep (contract assay)
# Experimental: as §1, §2
# M3 (h) = M3 (h) (Homo sapiens, UniProt P20309); conditions: 1 micromolar; antagonist radioligand; read-out: % Activity: Inhibition of Control Specific Binding
# M3 (h), sequence (P20309 whole entry): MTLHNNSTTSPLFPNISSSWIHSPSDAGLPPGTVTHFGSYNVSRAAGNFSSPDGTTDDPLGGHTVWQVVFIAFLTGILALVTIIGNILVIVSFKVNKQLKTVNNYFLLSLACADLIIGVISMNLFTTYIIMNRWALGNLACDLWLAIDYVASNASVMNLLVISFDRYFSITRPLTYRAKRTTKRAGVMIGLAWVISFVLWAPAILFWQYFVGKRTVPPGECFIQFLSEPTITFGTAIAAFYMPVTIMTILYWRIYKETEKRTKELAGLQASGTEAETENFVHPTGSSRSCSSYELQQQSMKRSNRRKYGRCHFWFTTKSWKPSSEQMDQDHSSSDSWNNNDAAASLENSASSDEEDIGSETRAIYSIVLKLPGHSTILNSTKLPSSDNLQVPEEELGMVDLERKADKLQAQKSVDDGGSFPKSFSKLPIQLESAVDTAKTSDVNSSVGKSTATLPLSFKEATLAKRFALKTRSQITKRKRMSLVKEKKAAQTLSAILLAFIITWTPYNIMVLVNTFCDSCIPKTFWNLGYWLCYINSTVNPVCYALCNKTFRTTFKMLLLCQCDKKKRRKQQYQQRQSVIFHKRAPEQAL
# Experimental: as §1, §2
# GR (h) = target: T4, GR (h) (Homo sapiens, UniProt P04150); conditions: 1 micromolar; agonist radioligand; read-out: % Activity: Inhibition of Control Specific Binding
# T4 construct: Eurofins Cerep (contract assay)
# Experimental: as §1, §2
# beta 2 (h) = beta 2 (h) (Homo sapiens, UniProt P07550); conditions: 1 micromolar; antagonist radioligand; read-out: % Activity: Inhibition of Control Specific Binding
# Experimental: as §1, §2
# M1 (h) = M1 (h) (Homo sapiens, UniProt P11229); conditions: 1 micromolar; antagonist radioligand; read-out: % Activity: Inhibition of Control Specific Binding
# Experimental: as §1, §2
# H2 (h) = H2 (h) (Homo sapiens, UniProt P25021); conditions: 1 micromolar; antagonist radioligand; read-out: % Activity: Inhibition of Control Specific Binding
# Experimental: as §1, §2
# D1 (h) = D1 (h) (Homo sapiens, UniProt P21728); conditions: 1 micromolar; antagonist radioligand; read-out: % Activity: Inhibition of Control Specific Binding
# Experimental: as §1, §2
# 5-HT2B (h) = target: T5, 5-HT2B (h) (Homo sapiens, UniProt P41595); conditions: 1 micromolar; agonist radioligand; read-out: % Activity: Inhibition of Control Specific Binding
# T5 construct: Eurofins Cerep (contract assay)
# T5 sequence (P41595 whole entry): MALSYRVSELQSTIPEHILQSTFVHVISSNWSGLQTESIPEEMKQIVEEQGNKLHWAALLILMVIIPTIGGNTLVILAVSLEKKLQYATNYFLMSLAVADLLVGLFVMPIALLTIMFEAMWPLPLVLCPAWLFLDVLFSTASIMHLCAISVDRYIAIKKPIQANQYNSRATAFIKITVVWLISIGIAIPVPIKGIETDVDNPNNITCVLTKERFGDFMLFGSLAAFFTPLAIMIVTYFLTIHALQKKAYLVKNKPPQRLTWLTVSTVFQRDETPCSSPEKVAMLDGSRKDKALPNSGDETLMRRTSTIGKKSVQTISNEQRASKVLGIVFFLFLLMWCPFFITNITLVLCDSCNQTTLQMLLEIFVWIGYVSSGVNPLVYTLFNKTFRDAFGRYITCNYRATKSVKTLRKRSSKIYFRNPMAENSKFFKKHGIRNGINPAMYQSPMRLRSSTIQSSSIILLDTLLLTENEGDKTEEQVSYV
# Experimental: as §1, §2
# dopamine transporter (h) = target: T6, dopamine transporter (h) (Homo sapiens, UniProt Q01959); conditions: 1 micromolar; antagonist radioligand; read-out: % Activity: Inhibition of Control Specific Binding
# T6 construct: Eurofins Cerep (contract assay)
# T6 sequence (Q01959 whole entry): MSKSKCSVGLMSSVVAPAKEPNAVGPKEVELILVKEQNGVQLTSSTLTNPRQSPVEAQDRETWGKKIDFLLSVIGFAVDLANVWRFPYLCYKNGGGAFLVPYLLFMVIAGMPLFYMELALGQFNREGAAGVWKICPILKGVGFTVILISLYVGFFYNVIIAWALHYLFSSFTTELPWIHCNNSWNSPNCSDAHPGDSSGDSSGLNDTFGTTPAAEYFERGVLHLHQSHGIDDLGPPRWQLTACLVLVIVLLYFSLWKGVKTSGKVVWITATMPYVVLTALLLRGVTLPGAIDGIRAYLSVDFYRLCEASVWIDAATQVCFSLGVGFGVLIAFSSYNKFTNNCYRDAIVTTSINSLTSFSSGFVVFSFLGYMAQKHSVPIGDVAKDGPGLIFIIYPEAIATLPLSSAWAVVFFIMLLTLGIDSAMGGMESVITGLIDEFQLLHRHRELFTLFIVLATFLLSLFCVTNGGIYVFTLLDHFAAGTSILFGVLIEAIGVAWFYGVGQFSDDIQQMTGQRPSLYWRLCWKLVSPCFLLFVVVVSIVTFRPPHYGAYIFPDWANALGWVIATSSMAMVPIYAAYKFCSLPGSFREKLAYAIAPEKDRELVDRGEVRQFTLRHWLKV
# Experimental: as §1, §2
# CCK1 (CCKA) (h) = CCK1 (CCKA) (h) (Homo sapiens, UniProt P32238); conditions: 1 micromolar; agonist radioligand; read-out: % Activity: Inhibition of Control Specific Binding
# Experimental: as §1, §2
# 5-HT transporter (h) = target: T7, 5-HT transporter (h) (Homo sapiens, UniProt P31645); conditions: 1 micromolar; antagonist radioligand; read-out: % Activity: Inhibition of Control Specific Binding
# T7 construct: Eurofins Cerep (contract assay)
# T7 sequence (P31645 whole entry): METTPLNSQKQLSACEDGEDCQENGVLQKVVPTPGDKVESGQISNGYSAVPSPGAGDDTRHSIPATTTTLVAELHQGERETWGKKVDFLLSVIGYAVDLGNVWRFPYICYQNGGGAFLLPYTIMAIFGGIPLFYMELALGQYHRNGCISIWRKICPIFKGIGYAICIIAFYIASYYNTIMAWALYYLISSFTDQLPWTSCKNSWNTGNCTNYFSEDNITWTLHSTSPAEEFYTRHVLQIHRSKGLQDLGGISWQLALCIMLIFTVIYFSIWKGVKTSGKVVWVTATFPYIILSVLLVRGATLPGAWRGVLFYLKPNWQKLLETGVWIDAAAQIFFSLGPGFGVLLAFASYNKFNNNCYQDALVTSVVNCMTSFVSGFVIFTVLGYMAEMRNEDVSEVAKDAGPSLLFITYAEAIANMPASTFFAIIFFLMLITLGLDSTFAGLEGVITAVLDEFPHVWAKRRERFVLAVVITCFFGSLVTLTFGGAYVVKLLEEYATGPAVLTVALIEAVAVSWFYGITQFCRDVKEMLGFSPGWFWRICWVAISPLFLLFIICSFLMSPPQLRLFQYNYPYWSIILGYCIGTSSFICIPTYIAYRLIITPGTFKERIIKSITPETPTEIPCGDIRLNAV
# Experimental: as §1, §2
# 5-HT2A (h) = target: T8, 5-HT2A (h) (Homo sapiens, UniProt P28223); conditions: 1 micromolar; agonist radioligand; read-out: % Activity: Inhibition of Control Specific Binding
# T8 construct: Eurofins Cerep (contract assay)
# Experimental: as §1, §2
# 5-HT3 (h) = target: T9, 5-HT3 (h) (Homo sapiens, UniProt P46098); conditions: 1 micromolar; antagonist radioligand; read-out: % Activity: Inhibition of Control Specific Binding
# T9 construct: Eurofins Cerep (contract assay)
# Experimental: as §1, §2
# [3] = target: N neuronal alpha 4beta 2 (h) (Homo sapiens, UniProt P17787+P43681); conditions: 1 micromolar; agonist radioligand; read-out: % Activity: Inhibition of Control Specific Binding
# N neuronal alpha 4beta 2 (h), sequence (P43681 29-627 limits assumed): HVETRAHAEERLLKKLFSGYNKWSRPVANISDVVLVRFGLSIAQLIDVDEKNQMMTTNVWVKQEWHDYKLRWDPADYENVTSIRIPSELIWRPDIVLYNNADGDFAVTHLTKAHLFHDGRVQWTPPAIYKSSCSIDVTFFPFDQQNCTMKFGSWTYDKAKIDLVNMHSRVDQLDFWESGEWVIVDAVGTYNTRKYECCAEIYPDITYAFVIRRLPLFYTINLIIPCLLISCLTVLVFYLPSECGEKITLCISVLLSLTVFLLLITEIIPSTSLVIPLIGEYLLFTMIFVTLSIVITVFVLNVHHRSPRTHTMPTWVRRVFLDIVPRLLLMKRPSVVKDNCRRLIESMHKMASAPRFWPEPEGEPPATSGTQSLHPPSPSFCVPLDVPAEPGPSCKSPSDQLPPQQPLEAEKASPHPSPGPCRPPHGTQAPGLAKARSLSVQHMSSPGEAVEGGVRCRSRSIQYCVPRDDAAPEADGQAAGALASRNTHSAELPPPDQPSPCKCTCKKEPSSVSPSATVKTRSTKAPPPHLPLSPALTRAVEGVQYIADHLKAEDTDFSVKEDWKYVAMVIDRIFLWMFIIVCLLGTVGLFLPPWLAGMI
# N neuronal alpha 4beta 2 (h), sequence (P17787 26-502): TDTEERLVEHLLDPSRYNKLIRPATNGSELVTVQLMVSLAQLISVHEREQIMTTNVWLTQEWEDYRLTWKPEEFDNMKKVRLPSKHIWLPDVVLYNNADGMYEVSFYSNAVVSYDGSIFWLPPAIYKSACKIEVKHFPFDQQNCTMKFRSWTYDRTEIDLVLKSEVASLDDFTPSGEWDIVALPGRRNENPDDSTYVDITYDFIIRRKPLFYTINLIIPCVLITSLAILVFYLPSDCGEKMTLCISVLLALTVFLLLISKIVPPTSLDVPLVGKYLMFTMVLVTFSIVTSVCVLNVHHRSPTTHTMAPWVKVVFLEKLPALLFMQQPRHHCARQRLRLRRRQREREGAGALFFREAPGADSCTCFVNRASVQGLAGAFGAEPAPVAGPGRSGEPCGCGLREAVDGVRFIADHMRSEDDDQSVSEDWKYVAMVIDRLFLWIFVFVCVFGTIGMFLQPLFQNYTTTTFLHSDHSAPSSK
# Experimental: as §1, §2
# H1 (h) = H1 (h) (Homo sapiens, UniProt P35367); conditions: 1 micromolar; antagonist radioligand; read-out: % Activity: Inhibition of Control Specific Binding
# Experimental: as §1, §2
# M2 (h) = M2 (h) (Homo sapiens, UniProt P08172); conditions: 1 micromolar; antagonist radioligand; read-out: % Activity: Inhibition of Control Specific Binding
# Experimental: as §1, §2
# CB2 (h) = CB2 (h) (Homo sapiens, UniProt P34972); conditions: 1 micromolar; agonist radioligand; read-out: % Activity: Inhibition of Control Specific Binding
# CB2 (h), sequence (P34972 whole entry): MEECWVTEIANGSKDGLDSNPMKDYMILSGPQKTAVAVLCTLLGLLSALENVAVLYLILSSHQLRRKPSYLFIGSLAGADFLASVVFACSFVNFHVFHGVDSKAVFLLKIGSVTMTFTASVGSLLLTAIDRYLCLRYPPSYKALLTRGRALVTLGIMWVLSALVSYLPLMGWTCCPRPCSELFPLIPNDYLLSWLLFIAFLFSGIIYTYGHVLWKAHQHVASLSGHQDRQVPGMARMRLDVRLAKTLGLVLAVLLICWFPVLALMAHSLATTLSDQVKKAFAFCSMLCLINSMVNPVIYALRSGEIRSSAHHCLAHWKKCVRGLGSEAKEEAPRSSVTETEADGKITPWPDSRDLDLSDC
# Experimental: as §1, §2
# 5-HT1A (h) = target: T10, 5-HT1A (h) (Homo sapiens, UniProt P08908); conditions: 1 micromolar; agonist radioligand; read-out: % Activity: Inhibition of Control Specific Binding
# T10 construct: Eurofins Cerep (contract assay)
# Experimental: as §1, §2
# delta (DOP) (h) = delta (DOP) (h) (Homo sapiens, UniProt P41143); conditions: 1 micromolar; agonist radioligand; read-out: % Activity: Inhibition of Control Specific Binding
# delta (DOP) (h), sequence (P41143 whole entry): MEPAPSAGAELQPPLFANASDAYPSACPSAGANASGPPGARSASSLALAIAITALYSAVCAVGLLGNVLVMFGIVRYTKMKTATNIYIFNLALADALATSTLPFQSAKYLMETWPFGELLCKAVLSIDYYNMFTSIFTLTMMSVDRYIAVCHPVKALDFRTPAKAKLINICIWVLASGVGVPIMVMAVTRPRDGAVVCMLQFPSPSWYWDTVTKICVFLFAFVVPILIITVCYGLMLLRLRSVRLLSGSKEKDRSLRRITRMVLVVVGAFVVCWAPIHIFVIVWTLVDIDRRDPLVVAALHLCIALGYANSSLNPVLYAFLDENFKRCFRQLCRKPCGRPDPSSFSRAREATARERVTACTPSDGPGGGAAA
# Experimental: as §1, §2
# CB1 (h) = CB1 (h) (Homo sapiens, UniProt P21554); conditions: 1 micromolar; agonist radioligand; read-out: % Activity: Inhibition of Control Specific Binding
# Experimental: as §1, §2
# mu (MOP) (h) = target: T11, mu (MOP) (h) (Homo sapiens, UniProt P35372); conditions: 1 micromolar; agonist radioligand; read-out: % Activity: Inhibition of Control Specific Binding
# T11 construct: Eurofins Cerep (contract assay)
# Experimental: as §1, §2
# 5-HT1B (h) = target: T12, 5-HT1B (h) (Homo sapiens, UniProt P28222); conditions: 1 micromolar; antagonist radioligand; read-out: % Activity: Inhibition of Control Specific Binding
# T12 construct: Eurofins Cerep (contract assay)
# Experimental: as §1, §2
# A2A (h) = A2A (h) (Homo sapiens, UniProt P29274); conditions: 1 micromolar; agonist radioligand; read-out: % Activity: Inhibition of Control Specific Binding
# A2A (h), sequence (P29274 whole entry): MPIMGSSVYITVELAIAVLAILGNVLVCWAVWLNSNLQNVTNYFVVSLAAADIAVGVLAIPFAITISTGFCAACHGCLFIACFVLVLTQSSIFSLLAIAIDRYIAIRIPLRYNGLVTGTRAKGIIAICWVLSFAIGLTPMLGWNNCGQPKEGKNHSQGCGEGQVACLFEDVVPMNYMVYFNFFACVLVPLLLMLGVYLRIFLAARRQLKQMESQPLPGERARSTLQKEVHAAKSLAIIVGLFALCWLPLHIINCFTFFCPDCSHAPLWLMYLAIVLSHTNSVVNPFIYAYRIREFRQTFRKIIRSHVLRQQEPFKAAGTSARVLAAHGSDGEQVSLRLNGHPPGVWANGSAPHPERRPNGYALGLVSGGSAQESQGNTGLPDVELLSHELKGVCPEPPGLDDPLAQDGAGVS
# Experimental: as §1, §2
# beta 1 (h) = beta 1 (h) (Homo sapiens, UniProt P08588); conditions: 1 micromolar; agonist radioligand; read-out: % Activity: Inhibition of Control Specific Binding
# Experimental: as §1, §2
# ETA (h) = ETA (h) (Homo sapiens, UniProt P25101); conditions: 1 micromolar; agonist radioligand; read-out: % Activity: Inhibition of Control Specific Binding
# ETA (h), sequence (P25101 21-427): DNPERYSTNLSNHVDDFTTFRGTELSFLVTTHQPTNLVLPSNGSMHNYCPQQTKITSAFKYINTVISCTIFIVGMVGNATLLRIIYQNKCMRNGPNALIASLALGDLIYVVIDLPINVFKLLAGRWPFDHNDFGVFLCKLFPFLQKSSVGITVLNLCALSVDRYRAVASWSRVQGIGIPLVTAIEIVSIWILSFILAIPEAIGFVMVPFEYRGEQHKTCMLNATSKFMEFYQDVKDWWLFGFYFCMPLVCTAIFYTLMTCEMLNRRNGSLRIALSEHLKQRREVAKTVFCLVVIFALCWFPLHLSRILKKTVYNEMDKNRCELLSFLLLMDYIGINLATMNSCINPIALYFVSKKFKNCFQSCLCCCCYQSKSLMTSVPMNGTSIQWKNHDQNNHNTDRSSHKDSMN
# Experimental: as §1, §2
# kappa (h) (KOP) = kappa (h) (KOP) (Homo sapiens, UniProt P41145); conditions: 1 micromolar; agonist radioligand; read-out: % Activity: Inhibition of Control Specific Binding
# Experimental: as §1, §2
# alpha 2A (h) = alpha 2A (h) (Homo sapiens, UniProt P08913); conditions: 1 micromolar; antagonist radioligand; read-out: % Activity: Inhibition of Control Specific Binding
# Experimental: as §1, §2
smiles,measurement,setting,value
"C[C@@H](O)[C@@H]1NC(=O)[C@H](CCCCN)NC(=O)[C@@H](Cc2c[nH]c3ccccc23)NC(=O)[C@H](Cc2ccccc2)NC(=O)[C@@H](NC(=O)[C@H](CCCNC(=N)N)NC(=O)[C@@H](Cc2ccccc2)NC(=O)CN2CCN(CC(=O)O)CCN(CC(=O)O)CCN(CC(=O)O)CC2)CSSCCN(CC(N)=O)C(=O)[C@H](Cc2ccccc2)NC1=O [SEQ ID NO: 3, DOTA-D-Phe^1-Arg^2-Cys^3-Phe^4-D-Trp^5-Lys^6-Thr^7-Phe^8-NTEG^9-NH2 cyclo 3-9] ({DOTA}-[dF]RCF[dW]KTF[N(2-mercaptoethyl)Gly]-NH2; disulfide 3-9)",inhibition at 1 µM,D2S (h),3%
same,inhibition at 1 µM,[1],-10%
same,inhibition at 1 micromolar,[2],-9%
same,inhibition at 1 µM,alpha 1A (h),-1%
same,inhibition at 1 µM,V1a (h),0%
same,inhibition at 1 µM,M3 (h),-7%
same,inhibition at 1 µM,GR (h),-10%
same,inhibition at 1 µM,beta 2 (h),-6%
same,inhibition at 1 µM,M1 (h),-3%
same,inhibition at 1 µM,H2 (h),-7%
same,inhibition at 1 µM,D1 (h),-1%
same,inhibition at 1 µM,5-HT2B (h),-31%
same,inhibition at 1 µM,dopamine transporter (h),12%
same,inhibition at 1 µM,CCK1 (CCKA) (h),-15%
same,inhibition at 1 µM,5-HT transporter (h),-9%
same,inhibition at 1 µM,5-HT2A (h),-2%
same,inhibition at 1 µM,5-HT3 (h),1%
same,inhibition at 1 µM,[3],-4%
same,inhibition at 1 µM,H1 (h),7%
same,inhibition at 1 µM,M2 (h),-4%
same,inhibition at 1 µM,CB2 (h),-1%
same,inhibition at 1 µM,5-HT1A (h),-3%
same,inhibition at 1 µM,delta (DOP) (h),10%
same,inhibition at 1 µM,CB1 (h),1%
same,inhibition at 1 µM,mu (MOP) (h),8%
same,inhibition at 1 µM,5-HT1B (h),1%
same,inhibition at 1 µM,A2A (h),0%
same,inhibition at 1 µM,beta 1 (h),5%
same,inhibition at 1 µM,ETA (h),-3%
same,inhibition at 1 µM,kappa (h) (KOP),10%
same,inhibition at 1 µM,alpha 2A (h),2%
